Peptide text beside a SMILES is read from it. * marks the point of attachment. CH2Cl = ClC*
Experiments:
[1] = test system: HL60 cells; assay: Viable cell count by tryptan blue method; assay type: cell-based, human; conditions: inhibitor alone 0.75 mg/ml, 14 hours
Experimental: (§1) Ac-KVPL-CMK, which is an inhibitor specific to granzyme M, was added to the culture medium (5 μM AraC) in an amount making a final concentration of 0.75 mg/ml, and then pre-incubated. To 48 well plates, 5×10^5 of each cell (U937 cells and HL60 cells) were seeded, and culturing was initiated with 200 μl of culture medium per well. Fourteen hours after culturing initiation, the number of viable cells was measured by the tryptan blue method (mixing a cell suspension and tryptan blue solution in 1:1, placing in a hemocytometer, and counting the number of cells using an optical microscope). It should be noted that Ac-KVPL-CMK was synthesized based on the tertiary structure of granzyme M (L. Wu et. al., Structural basis for proteolytic specificity of the human apoptosis-inducing granzyme M, J. Immunol., 2009; 183: 421-429).

[2] = test system: U937 cells; assay: Viable cell count by tryptan blue method; assay type: cell-based, human; conditions: inhibitor alone 0.75 mg/ml, 14 hours
Experimental: as §1, with “Ac-KVPL-CMK, which is an inhibitor specific to granzyme M, was added to the culture medium (5 μM AraC) in an amount making a final concentration of 0.75 mg/ml, and then pre-incubated.” left out

[3] = target: T1, granzyme M in Hela cells (Homo sapiens, UniProt P51124); assay: Granzyme M activity in extracted protein group (substrate, OD 405 nm); assay type: cell-based; conditions: CDDP 50 μM, 24 hours culture, incubation 10 min, 8 hr (P<0.05), 21 hr (P<0.01) vs. control, FIG. 11
T1 construct: endogenous in cells; host or cells: Hela
T1 sequence (P51124 26-257): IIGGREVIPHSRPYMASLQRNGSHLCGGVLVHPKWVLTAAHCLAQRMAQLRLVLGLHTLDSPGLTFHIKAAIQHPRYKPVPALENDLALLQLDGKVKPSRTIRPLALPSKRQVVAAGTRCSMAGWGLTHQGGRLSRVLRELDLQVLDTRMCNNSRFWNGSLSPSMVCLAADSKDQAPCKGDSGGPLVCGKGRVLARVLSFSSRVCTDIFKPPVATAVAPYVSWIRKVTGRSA
Experimental: (§2) To a measurement buffer (100 mM HEPES, 50 mM CaCl2, pH 7.4), 30 μg of protein group was introduced, and after adding substrate in an amount for a concentration of 200 μM, was incubated at 37° C. for 1 hour, and the absorbance at OD 405 nm was measured. It should be noted that the substrate was one synthesized by referencing Sami Mahrus, Walter Kisiel, and Charles S. Craik, Granzyme M is a regulatory protease that inactivates proteinase inhibitor 9, an endogenous inhibitor of granzyme B, J. Biol. Chem., 279, pp. 54275-54282, 2004. The vertical axis in FIG. 7 is an activity relative value for granzyme M calculated based on the absorbance.
Using Hela cells, which are human solid carcinoma cells, the action causing granzyme M activity of CDDP 50 μM conventionally used as a curative drug for solid carcinoma was investigated by culturing Hela cells for 24 hours at the same conditions as Test Example 5. The vertical axis in FIG. 11 is the activity relative value for granzyme M calculated based on the absorbance, and on the horizontal axis are test groups having incubation times of “10 min”, “8 hr” (8 hours) and “21 hr” (21 hours), in which “control” is the substrate without CDDP, and “CDDP” is the substrate and CDDP addition.

[4] = test system: Colo201; assay: Cell growth / viability, Cell Counting Kit 8 (WST-8); assay type: cell-based, human; conditions: AraC 1, 5, 10 and 50 μm, 24 hours, FIG. 2A
Experimental: (§3) Using U937 cells and HL60 cells, which are human leukemia cells, and Colo201, which are human colon cancer cells (all purchased from cell bank), 3×10^3 of each cell were seeded in 96 well plates, and then cultured with 100 μl of RPMI cell medium (containing 10% fetal bovine serum (FBS), 2 mM L-glutamine, 100 units/ml penicillin, 100 μg/ml streptomycin, 250 ng/ml amphoterin B) per each well. At this time, AraC (cylocide) being used in the treatment of acute myelocytic leukemia by conventional pathology was added to the culture medium at the respective concentrations of 1, 5, 10 and 50 μm, and cultured under the conditions of 37° C. and 5% CO2 for 24 hours. Subsequently, 10 μl of WST-8 solution was placed per 1 well, and cultured at 37° C. for 4 hours.
(§4) The growth of cells was measured using a Cell Counting Kit 8 (Dojindo). This method is a measurement method establishing the dehydrogenase activity in viable cells as an index, and performs measurement of viable cell count based on WST-8 (2-(2-methoxy-4-nitrophenyl)-3-(4-nitrophenyl)-5-(2,4-disulfophenyl)-2H-tetrazolium, monosodium salt), which is a tetrazolium salt, being reduced to form formazan. More specifically, using a spectrophotometer Multiscan JX (Thermo Labsystems, Waltham, Mass.), the absorbance at 450 nm was measured, and the absorbance at 690 nm was used as the reference. The vertical axis in the graph of FIG. 2A represents the extent of cell viability by relative value.

[5] = test system: HL60 cells; assay: as above; assay type: cell-based, human; conditions: AraC 1, 5, 10 and 50 μm, 24 hours, FIG. 2A, p<0.01
Experimental: as §3, §4

[6] = test system: U937 cells; assay: as above; assay type: cell-based, human; conditions: AraC 1, 5, 10 and 50 μm, 24 hours, FIG. 2A, p<0.01
Experimental: as §3, §4

[7] = test system: PARP and caspase-3 in U937 cells; assay: Expression of apoptosis associated proteins after AraC; assay type: cell-based, human; conditions: 5 μM AraC, 0 h, 3 hours, 6 hours, FIG. 2C
Experimental: Immediately after culturing start (0 h) under the administration of 5 μM of AraC, after 3 hours and after 6 hours, the expression of apoptosis associated proteins of U937 cells was measured.

[8] = test system: nucleophosmin (NPM) in U937; assay: Western blot of nucleophosmin (NPM) fragments; assay type: cell-based, human
Source text: (§5) By the same method as FIG. 2C, protein groups extracted from the respective cells of U937, HL60 and Colo201 were molecular weight fractionated by way of electrophoresis of a conventional method, and the behavior of nucleophosmin (NPM), which is a cell survival factor (anti-apoptotic factor), was further investigated by the western blot method of a conventional method. It should be noted that monoclonal anti-GB23 (nucleophosmin/NPM) (catalog number B0556), which is an anti-NPM antibody, was purchased from Sigma-Aldrich (Saint Louis, Mo., USA).
NPM fragments were recovered by the immunoprecipitation method, and the N-terminal amino acids at the cleavage site of NPM were analyzed to carry out identification of the protease participating in the cleavage of NPM. It should be noted that “LC” in FIG. 3B is a light chain of the antibody used in immunoprecipitation.

[9] = test system: nucleophosmin (NPM) in Colo201; assay: Western blot of nucleophosmin (NPM) fragments; assay type: cell-based, human; conditions: after AraC administration, FIG. 3A
Source text: as §5

[10] = test system: nucleophosmin (NPM) in HL60; assay: Western blot of nucleophosmin (NPM) fragments; assay type: cell-based, human; conditions: after AraC administration, FIG. 3A
Source text: as §5

[11] = test system: granzyme M in U937 cells; assay: Western blot, expression of granzyme M; assay type: cell-based, human; conditions: 5 μM AraC, 0 h, 1, 3 and 5 hours, FIG. 4
Experimental: (§6) Using U937 cells, Colo201 cells (negative control) and KHYG-1 cells (positive control), which are human NK cells, 5 μM of AraC was added to the culture medium, and culturing was carried out. Immediately after culturing initiation (0 h), after 1 hour, after 3 hours and after 5 hours, cells were recovered from the cell medium, and protein groups were extracted from the cells. The amount of protein group was measured, and a certain amount of protein group was molecular weight fractionated by way of electrophoresis of a conventional method.
By way of western blot of a conventional method, the expression of granzyme M was detected. […] The expression of granzyme M in U937 cells, which are cancer cells, is a novel discovery that had not been known conventionally. […] It should be noted that GZMM Antibody (catalog number: AP6792c) by Abgent was used as the granzyme M antibody.

[12] = test system: perforin in U937 cells; assay: Western blot, expression of perforin; assay type: cell-based, human; conditions: 5 μM AraC, FIG. 5
Experimental: Using U937 cells, Colo201 cells (negative control) and KHYG-1 cells (positive control), which are human NK cells, 5 μM of AraC was added to the culture medium, and culturing was carried out. Immediately after culturing initiation (0 h), after 1 hour, after 3 hours and after 5 hours, cells were recovered from the cell medium, and protein groups were extracted from the cells. The amount of protein group was measured, and a certain amount of protein group was molecular weight fractionated by way of electrophoresis of a conventional method. The expression of perforin was detected by way of western blot of a conventional method. […] It should be noted that Mouse Anti-Human Perforin, Monoclonal Antibody (catalog number: 3465-6-250) by Mabtech was used as the perforin antibody.

[13] = test system: granzyme M in HL60 cells; assay: Western blot, expression of granzyme M; assay type: cell-based, human; conditions: 5 μM AraC, FIG. 6
Experimental: as §6
(§7) Except for the point of using HL60 cells and KHYG-1 cells (positive control section), the expression of granzyme M and perforin was examined at the same conditions as Test Example 3.

[14] = test system: perforin in HL60 cells; assay: Western blot, expression of perforin; assay type: cell-based, human; conditions: 5 μM AraC, FIG. 6
Experimental: as §6, §7

[15] = target: T2, granzyme M in U937 cells (Homo sapiens, UniProt P51124); assay: Granzyme M activity in extracted protein group (substrate, OD 405 nm); assay type: cell-based; conditions: 5 μM AraC, 0 h, 3, 5 and 7 hours, FIG. 7
T2 construct: endogenous in cells; host or cells: U937, HL60
T2 sequence (P51124 26-257): T1 sequence (P51124 26-257)
Experimental: (§8) At the same conditions (5 μM AraC) as Test Example 1, U937 cells, HL60 cells and KHYG-1 cells (positive control section) were cultured, cells were recovered from the culture medium immediately after culturing initiation (0 h), after 3 hours, after 5 hours and after 7 hours, and the protein groups were extracted from the cells.
as §2
Next, using protein groups arrived at by administering serine protease inhibitor (50 μM TPCK) to the culture medium, culturing U937 cells under the same conditions for 7 hours, and recovering, the absorbance was measured in the same way as above. The vertical axis in FIG. 3 is the activity relative value for granzyme M calculated based on the absorbance.

[16] = target: T3, granzyme M in HL60 cells (Homo sapiens, UniProt P51124); assay: as above; assay type: cell-based; conditions: 5 μM AraC, 0 h, 3, 5 and 7 hours, FIG. 7
T3 construct: endogenous in cells; host or cells: U937, HL60
T3 sequence (P51124 26-257): T1 sequence (P51124 26-257)
Experimental: as §8, §2

CC(=O)N[C@@H](CCCCN)C(=O)N[C@H](C(=O)N1CCC[C@H]1C(=O)N[C@@H](CC(C)C)C(=O)CCl)C(C)C [granzyme M-specific inhibitor, Ac-KVPL-CMK] (Ac-KVPL-CH2Cl)
viable cell count, sole administration vs. control group [1]: significant difference in viable cell count was not confirmed | viable cell count, sole administration vs. control group [2]: significant difference in viable cell count was not confirmed

[NH2][Pt]([NH2])([Cl])[Cl] [CDDP, cisplatin]
activity of granzyme M (relative value) [3]: increased with the elapse of time

Nc1ccn([C@@H]2O[C@H](CO)[C@@H](O)[C@@H]2O)c(=O)n1 [AraC]
cell death (cell viability, relative value) [4]: not induced | cell death (cell viability, relative value) [5]: concentration dependently induced | cell death (cell viability, relative value) [6]: concentration dependently induced | PARP decomposition [7]: decomposed along with the elapse of time | caspase-3 decomposition [7]: decomposed along with the elapse of time | cleavage site of NPM fragment (N-terminal amino acid sequence AAED) ([8]; NPM fragments recovered by immunoprecipitation after AraC administration, FIG. 3B): cleaved by Leu-158 of NPM | fragments of NPM ([8]; U937, after AraC administration, FIG. 3A): detected along with the elapse of time | fragments of NPM [9]: not detected | fragments of NPM [10]: detected along with the elapse of time | expression level of granzyme M [11]: unrelated to the elapse of AraC administration time | expression of perforin [12]: not induced | expression level of granzyme M [13]: tendency of the expression level being exacerbated depending on the time elapsed | expression of perforin [14]: not recognized | activity of granzyme M (relative value) [15]: increases along with the elapse of time | activity of granzyme M (relative value) [16]: increases along with the elapse of time

Reference: patent US20150031872A1, “METHOD FOR SCREENING ANTICANCER DRUGS, AND ANTICANCER DRUG THAT INDUCES CELL DEATH AND USES SUBSTANCE THAT INCREASES GRANZYME M ACTIVITY AS ACTIVE INGREDIENT” (LSIP, LLC, priority 2012, published 2015)
